Values quoted from earlier work as cited in patent US20200054560A1 (Alnova Pharmaceuticals, Ltd., priority 2017, published 2020).

solubility in N,N-dimethylformamide (N,N-dimethylformamide): slightly soluble | solubility above pH 4 (above pH 4): reduces significantly | solubility behaviour at or below pH 4 (at or below pH 4): high-solubility compound | solubility in dimethyl sulfoxide (dimethyl sulfoxide): slightly soluble | solubility in methanol (methanol): very slightly soluble | solubility in water (water): very slightly soluble
SMILES: CC(=O)c1c(C)c2cnc(Nc3ccc(N4CCNCC4)cn3)nc2n(C2CCCC2)c1=O [Palbociclib, 6-acetyl-8-cyclopentyl-5-methil-2-(5-piperazin-1-yl-pyridin-2-ylamino)-8H-pyrido [2,3-d] pyridin-7-one]
